Assay: Oxidation-reduction resistance evaluation (cyclic voltammetry)
Format: physicochemical
Settings: 0.1 mol/L in 1.0 mol/L aqueous sodium hydrogen carbonate; glass-like carbon electrode, Ag/AgCl reference; sweep rate 100 mV/sec
Protocol: The fluoflavine compound represented by the formula (1-2) was dissolved in an aqueous solution (1.0 mol/L) of sodium hydrogen carbonate (manufactured by Tosoh Corporation, an industrial product) so that the concentration was 0.1 mol/L to produce an electrolyte liquid 10. The electrolyte liquid 10 was added into a sample vial for voltammetry (manufactured by BAS Inc., No. 001056), and a Teflon™ cap for voltammetry (manufactured by BAS Inc., 012671) was attached. A Pt counter electrode (manufactured by BAS Inc., No. 002222), a GCE glass-like carbon electrode (manufactured by BAS Inc., 6.0×3.0 mm, No. 002012), and a saturated KCl/silver/silver chloride reference electrode (manufactured by BAS Inc., No. 013503) were fixed with the Teflon™ cap so as to be immersed in the electrolyte liquid 10, and measurement of cyclic voltammetry was performed with a multi-electrochemical measurement system (manufactured by Hokuto Denko Co., Ltd., HZ-Pro). The potential scanning range was set to −500 mV to 700 mV, and a sweep rate was set to 100 mV/see to perform the measurement.
An electrolyte liquid 12 was prepared in the same manner except that the fluoflavine compound represented by the formula (1-2) in the oxidation-reduction resistance evaluation 1 was changed to the compound represented by the formula (1-17). […]

O=S(=O)([O-])c1cc(O)c(O)c(S(=O)(=O)[O-])c1.[Na+].[Na+] [formula (1-17)]
oxidation-reduction resistance (cyclic voltammogram, first cycle): oxidized and then decomposed

— patent US20260138083A1, “CARBON DIOXIDE CONCENTRATOR” (NIPPON KAYAKU KABUSHIKI KAISHA, priority 2023, published 2026)
